Source: PMC12126490, “The HP1 box of KAP1 organizes HP1α for silencing of endogenous retroviral elements in embryonic stem cells” (Nature Communications, 2025)

Key:
HP1αCSD = biological target: T1, HP1αCSD (Homo sapiens, UniProt P45973); assay: 1H,15N HSQC NMR titration of 15N-labeled HP1αCSD with KAP1Hbox; assay type: binding; conditions: 0.1–0.2 mM 15N-labeled protein, 20 mM Tris pH 6.8, 150 mM NaCl, 2 mM DTT, 10% D2O, 298 K
T1 construct: HP1αCSD (aa 109–185 of HP1α); GST (N, cleaved yes); made in house; host or cells: E. coli BL21 Rosetta (DE3) pLysS
Description: NMR data were processed and analyzed with NMRPipe[54] and NMRDraw as described[55].

[1] = system: endogenous KAP1 from HCT116 cells; assay: pull-down with Strep-tagged HP1α, Western blot; assay type: binding; conditions: Strep-tagged full-length HP1α, 3 biological replicates
Description: For all AP experiments, HCT116 cells were seeded in 10 cm plates (~4 million cells per dish) and transfected with Strep- and Flag-tagged plasmids one-day after seeding cells. Two days post-transfection, cells were collected in PBS and lysed with passive lysis buffer (PLB: 50 mM Tris-HCl pH 7.5, 150 mM NaCl, 1 mM DTT, 1.0% NP-40, 1.5 mM MgCl2, 5% v/v glycerol, and 1X complete, Mini EDTA-free, EASYpack Protease Inhibitor [Roche, Cat# 4693159001]) by resuspending cells in PLB, vortexing briefly, nutating for 15 min at 4 °C, and centrifuging the lysate (10,000 × g, 10 min, 4 °C). Strep-Tactin superflow resin (IBA Life Sciences, Cat# 2-1208-010), was equilibrated by centrifuging beads (2000 RPM, 2 min, 4 °C), removing storage buffer, and washing three times with PLB with nutation for 5 min at 4 °C. Beads were volumed back to their original volume, and 40 µL beads were used per AP and bound for 2 h. Beads were then washed with AP Wash Buffer (50 mM Tris-HCl pH 7.5, 250 mM NaCl, 1 mM DTT, 0.2% NP-40, 1.5 mM MgCl2, and 5% v/v glycerol), and eluted with Strep-tag Elution Buffer containing D-Desthiobiotin (IBA Life Sciences, Cat# 2-1000-025).
All western blots were run on 10-12% SDS-PAGE gels and transferred on nitrocellulose membranes (Bio-Rad, Cat# 1620115) using the Bio-Rad Trans-Blot Turbo Transfer System, blocked for 1 h in 5% Milk (or BSA) with Tris-buffered saline-Tween-20 (TBST), probed with primary antibody in 5% Milk (or BSA) with TBST. Blots were exposed using either Clarity Western ECL (Bio-Rad, Cat# 1705060) or utilizing the starbright secondary channel. KAP1 and CBX5/HP1a mutants for Western blot assays were generated using QuikChange II XL Site-Directed Mutagenesis kit (Agilent, Cat# 200522) per manufacturer’s instructions. PCR amplified DNAs were transformed into E. coli BME treated XL-10 Gold provided in the kit and positive clones validated by Sanger Sequencing. […]
Tryptophan fluorescence data are presented as average of three independent measurements ±SD. […]

HP1αCSD’ = assay: NMR chemical shift perturbation of 15N-labeled HP1αCSD’; assay type: binding, human; conditions: 50 μM 15N-labeled HP1αCSD’ with 1 mM unlabeled HP1αCSD’ or 900 μM unlabeled HP1αCD; 1H,15N HSQC
Description: NMR experiments for amide chemical shift assignments were collected at 310 K on an Avance Neo Bruker 800 MHz spectrometer equipped with a TXO cryo-probe optimized for ^15N detection. The HP1αCSD’ construct (aa 112–176 of HP1α) and the CD of HP1α (aa 18–75 of HP1α, HP1αCD) were purified as described. Experiments were performed in buffer containing 20 mM HEPES (90% H2O/10% D2O), pH 7.2, 75 mM KCl, 1 mM TCEP, and 0.01% NaN3. Chemical shift assignments were performed on a 400 μM uniformly ^13C/^15N-labeled HP1αCSD’ sample using standard 2D ^1H,^15N HSQC, 3D HNCACB and 3D CBCA(CO)NH experiments[56]–[58]. Data were processed with NMRPipe[54] and analyzed in NMRFAM-SPARKY[59] (Sparky). […]
Fig. 10, ^1H,^15N HSQC spectra were recorded on 50 μM ^15N-labeled HP1αCSD’ samples with and without 1 mM unlabeled HP1αCSD’ or with and without 900 μM unlabeled HP1αCD. The resonance perturbation analysis was performed using the […][60],[61] as follows:3 Δδcombined=∣ΔδH∣+α∣ΔδN∣ The ∆δcombined is the sum of the absolute chemical shift change. ∆δH is the change in the ^1H chemical shift. ∆δN is the change in the ^15N chemical shift. α (0.105) is the scaling factor calculated by using the ratio between the backbone ^1H chemical shift range and ^15N chemical shift range from the ^1H,^15N HSQC spectrum.

[2] = system: 147 bp Widom 601 DNA (DNA147); assay: EMSA; assay type: binding; conditions: for DNA binding of protein or peptide itself: 0.25 pmol/lane DNA147, 25 mM Tris-HCl pH 7.5, 150 mM NaCl, peptides without HP1α
Description: (§1) Human full-length HP1α and HP1αCSD (aa 109–185 of HP1α) were cloned into a pGEX4T-1 expression vector and expressed in E. coli BL21 Rosetta (DE3) pLysS cells grown in Luria Broth or M9 minimal media supplemented with ^15NH4Cl (Sigma-Aldrich). Following induction with 0.5 mM isopropyl β-D-1-thiogalactopyranoside (IPTG) for 20 h at 16 °C, cells were harvested by centrifugation and lysed by sonication. GST-tag fusion proteins were purified on glutathione agarose 4B beads (Thermo Fisher Sci) in 50 mM Tris-HCl (pH 7.5) buffer, supplemented with 500 mM NaCl and 5 mM β-mercaptoethanol. The GST tag was cleaved with TEV (Tobacco Etch Virus) protease overnight at 4 °C. Proteins were further purified by size exclusion chromatography (SEC) and concentrated in Millipore concentrators. Mutants were generated by site-directed mutagenesis using the Stratagene QuikChange mutagenesis protocol and were purified as wild-type proteins.
The protein was expressed in E. coli BL21(DE3) RIL competent cells in Luria Broth, induced with 0.5 mM IPTG and grown for 20 h at 16 °C. The cells were harvested by centrifugation and lysed by sonication. […] The protein was eluted in 50 mM Tris-HCl (pH 7.5) buffer supplemented with 500 mM NaCl, 500 mM imidazole and 5 mM DTT. The protein was further purified by size exclusion chromatography using a HiLoad16/600 Superdex 75 column (Cytiva) and buffer containing 50 mM Tris-HCl (pH 7.5), 500 mM NaCl and 5 mM DTT. The eluted protein fractions were analyzed by SDS-PAGE. The fractions were pooled, concentrated and exchanged with buffer containing […] pH 7.5, 150 mM NaCl and 2.5 mM DTT. The His-SUMO tag was cleaved overnight at 4 °C with Ulp1 enzyme and the tag was removed using Ni-NTA beads. The purified KAP1Hbox’ was concentrated in Millipore concentrators.
The buffer containing 25 mM Tris-HCl pH 7.5, 150 mM NaCl and 2.5 mM DTT was used to make up the final reaction volume of 10 µL. The samples were incubated for 1 h on ice and then loaded on a 8% native PAGE gel and run for 2 h at 80 V in 0.5× Tris-borate-EDTA (TBE) on ice. The gels were stained with SYBR Gold (Thermo Fisher Sci) and visualized by Blue LED (UltraThin LED Illuminator-GelCompany).
Tryptophan fluorescence data are presented as average of three independent measurements ±SD. […] EMSA experiments in Fig. 4 and Supplementary Figs. 6 and 7 were performed at least twice.

I165E HP1αCSD = assay: NMR titration of 15N-labeled I165E HP1αCSD with unlabeled HP1αCSD; assay type: binding, human
Description: as §1
(§2) NMR data were processed and analyzed with NMRPipe[54] and NMRDraw as described. Normalized chemical shift perturbations shown in Fig. 3b were calculated using the equation:2 Δδ=ΔδH^2+ΔδN/5^2 where Δδ is the change in chemical shift in parts per million (ppm).

W174A mutant of HP1αCSD = assay: 1H,15N HSQC NMR titration of W174A HP1αCSD with KAP1Hbox; assay type: binding, human; conditions: 15N-labeled W174A HP1αCSD, 20 mM Tris pH 6.8, 150 mM NaCl, 2 mM DTT, 298 K
Description: as §1, §2

I165E mutant of HP1αCSD = assay: 1H,15N HSQC NMR titration of I165E HP1αCSD with KAP1Hbox; assay type: binding, human; conditions: 15N-labeled I165E HP1αCSD, 20 mM Tris pH 6.8, 150 mM NaCl, 2 mM DTT, 298 K
Description: as §1, §2

L139E/L150E HP1αCSD = assay: 1H,15N HSQC NMR titration of L139E/L150E HP1αCSD with KAP1Hbox; assay type: binding, human; conditions: 15N-labeled L139E/L150E HP1αCSD, 20 mM Tris pH 6.8, 150 mM NaCl, 2 mM DTT, 298 K
Description: as §1, §2

FL HP1α = assay: mass photometry with KAP1Hbox (Fig. 5j); design: species or system human; conditions: 2:1 molar ratio HP1α:KAP1Hbox
Description: as §1
(§3) Mass photometry (MP) assays shown in Fig. 5c, j, were performed on a Refeyn Two^MP mass photometer (Refeyn Ltd, Oxford, UK) to determine oligomeric states of FL and L139E/L150E HP1α. Each sample was loaded into the sample wells of the silicon cassettes assembled onto MassGlass UC coverslips (Refeyn, Ltd.). Samples for measurements were prepared by rapid in-drop dilution and measurements were performed at room temperature in buffer (50 mM Tris pH 7.5, 150 mM NaCl, 5 mM DTT). […]

L139E/L150E FL HP1α = assay: mass photometry with KAP1Hbox (Fig. 5j); design: species or system human; conditions: 2:1 molar ratio HP1α:KAP1Hbox
Description: as §1, §3

T1 sequence (P45973 109-185): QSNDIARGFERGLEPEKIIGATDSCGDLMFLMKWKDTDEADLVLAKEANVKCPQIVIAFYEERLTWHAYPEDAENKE

V488E mutant of KAP1Hbox: V488E mutant of KAP1Hbox peptide (RKVPRESLERL)
binding by CSPs in HSQC (HP1αCSD): no CSP were observed

I165E HP1α: I165E mutant of full-length HP1α (dimerization interface), Strep-tagged
pull-down of endogenous KAP1 [1]: not

W174A HP1α: W174A mutant of full-length HP1α, Strep-tagged
pull-down of endogenous KAP1 [1]: not

CD domain: CD of HP1α (aa 18–75 of HP1α)
resonance perturbations in HP1αCSD’ (HP1αCSD’): does not induce such changes

HP1αCSD: aa 109–185 of HP1α, chromoshadow domain
shift of DNA band by HP1αCSD in presence or absence of KAP1Hbox ([2]; isolated HP1αCSD, with and without KAP1Hbox (1:10)): unable to shift the DNA band
CSPs in I165E HP1αCSD (I165E HP1αCSD): led to CSPs
resonance perturbations in HP1αCSD’ (HP1αCSD’): resonance perturbations observed

CC(C)C[C@H](NC(=O)[C@H](CCCNC(=N)N)NC(=O)[C@H](CCC(=O)O)NC(=O)[C@H](CC(C)C)NC(=O)[C@H](CO)NC(=O)[C@@H](NC(=O)[C@H](CCCNC(=N)N)NC(=O)[C@@H]1CCCN1C(=O)[C@@H](NC(=O)[C@H](CCCCN)NC(=O)[C@@H](N)CCCNC(=N)N)C(C)C)C(C)C)C(=O)O [KAP1Hbox]
binding by CSPs in HSQC (W174A mutant of HP1αCSD): no CSP were observed
binding by CSPs in HSQC (I165E mutant of HP1αCSD): disrupted
binding by CSPs in HSQC (L139E/L150E HP1αCSD): does not disrupt the CSD-KAP1Hbox complex formation
DNA binding of protein or peptide itself ([2]; 2.5 mM DTT, 1 h on ice): did not appreciably bind DNA
effect of peptide on binding of HP1α to DNA147 ([2]; FL HP1α, tenfold molar excess of peptide, 25 mM Tris-HCl pH 7.5, 150 mM NaCl, 2.5 mM DTT, 1 h on ice, 8% native PAGE): augmented binding of HP1α to DNA
effect on oligomerization of WT FL HP1α (FL HP1α): further increased oligomerization of WT FL HP1α
KAP1Hbox-promoted oligomerization of L139E/L150E FL HP1α (L139E/L150E FL HP1α): markedly decreased

FL HP1α: Human full-length HP1α
DNA binding of protein or peptide itself ([2]; 2.5 mM DTT, 1 h on ice): forms a complex with DNA147
pull-down of endogenous KAP1 [1]: immunoprecipitated
